Laboratory results published in ChEMBL document CHEMBL5316313, “Discovery of Novel 3-Phenylpiperidine Derivatives Targeting the β-Catenin/B-Cell Lymphoma 9 Interaction as a Single Agent and in Combination with the Anti-PD-1 Antibody for the Treatment of Colorectal Cancer” (J Med Chem, 2023).
The source made the active and inactive calls. The calls are words filed in the database; no cut-off is given here.

Legend:
[1] = Toxicity in BALB/c mouse xenografted with mouse CT26 cells assessed as pathological changes in lung at 30 mg/kg, ip QD by hematoxylin and eosin staining based microscopic analysis; format: organism-based; conditions: in vivo
CT26 [2] = conditions: Mus musculus, BALB/c, dose 30.0 mg/kg, route ip
Description: In vivo inhibition of Wnt signaling pathway in mouse CT26 cells implanted in BALB/c mouse assessed as reduction in Axin2 mRNA expression level in tumor at 30 mg/kg, ip QD by qRT-PCR analysis

CT26 [3] = assay: Synergistic antitumor activity in mouse CT26 cells xenografted in BALB/c mouse assessed as increase in CD8+ T cell infiltration into tumor at 30 mg/kg, ip QD in presence of anti-PD-1 antibody cotreatment at 10 mg/kg,ip BIW by flow cytometry; format: functional, organism-based
Beta catenin-BCL9 = target: T1, Beta catenin-BCL9 (Mus musculus, UniProt Q02248+Q9D219); assay: Inhibition of beta-catenin/BCL9 protein-protein interaction in Wnt-dependent BCL9 knockdown mouse CT26 cells assessed as reduction in Axin2 expression level by qRT-PCR assay; format: cell-based
T1 sequence (Q02248 whole entry): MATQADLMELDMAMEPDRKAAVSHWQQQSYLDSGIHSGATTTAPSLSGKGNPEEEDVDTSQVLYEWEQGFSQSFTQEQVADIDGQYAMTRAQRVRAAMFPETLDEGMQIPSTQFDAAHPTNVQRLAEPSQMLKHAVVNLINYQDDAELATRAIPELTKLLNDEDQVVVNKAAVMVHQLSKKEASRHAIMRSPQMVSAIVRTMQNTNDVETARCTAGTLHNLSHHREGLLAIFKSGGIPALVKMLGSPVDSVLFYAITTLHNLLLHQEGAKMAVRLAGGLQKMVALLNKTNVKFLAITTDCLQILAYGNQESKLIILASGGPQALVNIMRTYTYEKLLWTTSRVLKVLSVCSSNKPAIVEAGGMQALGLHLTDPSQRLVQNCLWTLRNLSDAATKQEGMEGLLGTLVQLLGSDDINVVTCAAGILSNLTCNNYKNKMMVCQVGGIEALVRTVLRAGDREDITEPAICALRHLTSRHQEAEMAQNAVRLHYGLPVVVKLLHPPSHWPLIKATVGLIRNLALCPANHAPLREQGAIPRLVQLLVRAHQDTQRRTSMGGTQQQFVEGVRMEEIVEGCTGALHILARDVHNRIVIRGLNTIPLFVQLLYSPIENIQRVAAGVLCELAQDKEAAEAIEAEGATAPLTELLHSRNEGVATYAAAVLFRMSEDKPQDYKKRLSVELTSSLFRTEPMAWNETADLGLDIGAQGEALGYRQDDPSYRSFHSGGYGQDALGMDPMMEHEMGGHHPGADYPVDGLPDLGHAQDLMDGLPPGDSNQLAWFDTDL
T1 sequence (Q9D219 whole entry): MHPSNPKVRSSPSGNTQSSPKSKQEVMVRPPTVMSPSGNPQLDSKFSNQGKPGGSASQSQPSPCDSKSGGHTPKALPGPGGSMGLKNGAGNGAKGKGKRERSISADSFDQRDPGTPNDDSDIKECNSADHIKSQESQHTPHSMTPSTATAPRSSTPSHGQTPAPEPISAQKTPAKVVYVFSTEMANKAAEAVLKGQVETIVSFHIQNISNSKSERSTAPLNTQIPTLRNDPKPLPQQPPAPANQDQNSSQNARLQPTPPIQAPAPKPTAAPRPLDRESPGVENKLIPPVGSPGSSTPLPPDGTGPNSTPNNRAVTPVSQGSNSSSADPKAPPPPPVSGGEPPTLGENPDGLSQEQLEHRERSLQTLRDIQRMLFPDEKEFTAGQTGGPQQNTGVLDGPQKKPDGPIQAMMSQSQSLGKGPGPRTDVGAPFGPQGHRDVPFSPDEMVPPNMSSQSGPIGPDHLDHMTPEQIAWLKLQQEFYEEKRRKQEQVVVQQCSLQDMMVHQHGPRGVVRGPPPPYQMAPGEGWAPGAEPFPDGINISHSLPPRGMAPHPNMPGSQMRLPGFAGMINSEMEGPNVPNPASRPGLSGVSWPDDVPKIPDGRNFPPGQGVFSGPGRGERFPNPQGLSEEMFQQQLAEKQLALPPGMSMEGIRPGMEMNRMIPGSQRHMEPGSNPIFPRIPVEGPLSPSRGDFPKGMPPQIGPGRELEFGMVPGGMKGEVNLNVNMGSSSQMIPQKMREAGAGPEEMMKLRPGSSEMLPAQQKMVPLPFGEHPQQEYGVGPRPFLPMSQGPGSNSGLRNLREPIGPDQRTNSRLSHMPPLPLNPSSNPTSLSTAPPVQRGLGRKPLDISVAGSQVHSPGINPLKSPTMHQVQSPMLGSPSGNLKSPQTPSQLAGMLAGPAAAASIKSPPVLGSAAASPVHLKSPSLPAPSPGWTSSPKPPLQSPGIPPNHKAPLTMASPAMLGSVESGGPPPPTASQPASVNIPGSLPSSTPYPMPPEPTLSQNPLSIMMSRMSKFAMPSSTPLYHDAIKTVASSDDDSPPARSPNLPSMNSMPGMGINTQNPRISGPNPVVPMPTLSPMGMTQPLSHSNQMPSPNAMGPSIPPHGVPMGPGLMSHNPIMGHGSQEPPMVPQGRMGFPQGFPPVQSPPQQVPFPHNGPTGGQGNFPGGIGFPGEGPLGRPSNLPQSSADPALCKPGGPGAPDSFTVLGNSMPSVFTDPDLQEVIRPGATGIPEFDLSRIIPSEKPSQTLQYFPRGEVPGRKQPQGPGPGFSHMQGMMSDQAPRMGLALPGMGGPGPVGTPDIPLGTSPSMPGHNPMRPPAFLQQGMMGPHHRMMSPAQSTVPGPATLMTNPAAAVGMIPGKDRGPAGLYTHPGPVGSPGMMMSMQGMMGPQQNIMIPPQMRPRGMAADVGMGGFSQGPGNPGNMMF

[4] = Toxicity in BALB/c mouse xenografted with mouse CT26 cells assessed as pathological changes in bone marrow at 30 mg/kg, ip QD in presence of anti-PD-1 antibody cotreatment at 10 mg/kg,ip BIW by hematoxylin and eosin staining based microscopic analysis; format: organism-based; conditions: in vivo
CT26 [5] = assay: Induction of apoptosis in Wnt-dependent mouse CT26 cells assessed as viable cells at 20 uM incubated for 24 hrs by Annexin V-Alexa Fluor 647/PI staining based flow cytomtery (Rvb=70.7%); format: functional; conditions: read-out: Activity
CT26 [6] = assay: Synergistic antitumor activity in mouse CT26 cells xenografted in BALB/c mouse assessed as increase in granzyme B-positive CD8+ T cell infiltration into tumor at 30 mg/kg, ip QD in presence of anti-PD-1 antibody cotreatment at 10 mg/kg,ip BIW by flow cytometry; format: functional, organism-based
[7] = Toxicity in BALB/c mouse xenografted with mouse CT26 cells assessed as pathological changes in spleen at 30 mg/kg, ip QD in presence of anti-PD-1 antibody cotreatment at 10 mg/kg,ip BIW by hematoxylin and eosin staining based microscopic analysis; format: organism-based; conditions: in vivo
[8] = Toxicity in BALB/c mouse xenografted with mouse CT26 cells assessed as pathological changes in kidney at 30 mg/kg, ip QD by hematoxylin and eosin staining based microscopic analysis; format: organism-based; conditions: in vivo
CT26 [9] = assay: Induction of apoptosis in Wnt-dependent mouse CT26 cells assessed as late apoptotic cells at 10 uM incubated for 24 hrs by Annexin V-Alexa Fluor 647/PI staining based flow cytomtery (Rvb=9.96%); format: functional

IC50 (Beta catenin-BCL9): 51.6 µM
Compound: CC(C)c1ccc(-c2cccc(S(=O)(=O)N3CCCC(c4cccc(OC(C)(C)C(=O)NS(=O)(=O)c5ccc(C(F)(F)F)cc5)c4)C3)c2)cc1 (stereo not given)
Activity [1]: Non-Toxic
inhibition (CT26 [2]): Active
Activity (CT26 [3]): Active
Activity [4]: Non-Toxic
viability at 20 µM (CT26 [5]): 16%
Activity (CT26 [6]): Active
Activity [7]: Non-Toxic
Activity [8]: Non-Toxic
Activity (CT26 [9]): 30.2%
